From patent publication US20210332024A1, “MODULATORS OF PIN1 ACTIVITY AND USES THEREOF” (Yeda Research and Development Co. Ltd., priority 2019, published 2021)

Legend:
[1] = test system: PDX (patient-derived xenograft) tumors; test: PDX orthotopic xenograft mouse model; format: in vivo; settings: IP 2 or 4 mg/kg every day, 6 weeks
Description: 4×2 mm PDX (patient-derived xenograft) tumors were transplanted into NSC mouse pancreas (orthotopic xenografts). After 1 week of the transplantation, treatment of mice with Pin1-3 began. Mice were treated (IP) with Pin1-3 diluted solution (as a control), or 2 or 4 mg/kg […] every day. Tumor size were measured and mice were sacrificed after 6 weeks to collect tumor tissue (n=5).

germinal centers = test: Germinal center size after NP-OVA immunization; format: in vivo, mice; settings: IP 40 mg/kg on days 7 and 9 post immunization, day 11
Description: 12 wild-type mice were immunized with OVA coupled to the hapten 4-hydroxy-3-nitrophenylacetyl (NP-OVA) precipitated in alum. The mice were injected with two doses of Pin1-3 (IP; 40 mg/kg) or vehicle on days 7 and 9 post immunization, and on day 11 the mice were sacrificed and germinal centers size was assessed in lymph nodes by flow cytometry.

Pin1 in PATU-8988T cells = molecular target: T1, Pin1 in PATU-8988T cells (Homo sapiens, UniProt Q13526); test: Live cell competition assay with Pin1-3-DTB pull-down, PATU-8988T cells; format: cell-based
T1 construct: endogenous in cells; host or cells: PATU-8988T
T1 sequence (Q13526 whole entry): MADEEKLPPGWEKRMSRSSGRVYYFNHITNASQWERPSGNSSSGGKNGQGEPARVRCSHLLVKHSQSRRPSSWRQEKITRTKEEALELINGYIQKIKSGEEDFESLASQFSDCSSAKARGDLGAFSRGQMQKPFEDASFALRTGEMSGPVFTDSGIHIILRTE
Description: The indicated cells were treated with increasing concentrations of either DMSO, Pin1-3, or Pin1-3-AcA for 5 hours. Cells were harvested by scraping and washed twice with PBS before lysis with 50 mM HEPES (pH 7.4), 1 mM EDTA, 10% glycerol, 1 mM TCEP, 150 mM NaCl, 1 mM EDTA, 0.5% NP-40, and protease inhibitor tablet (Roche cat. #4693159001). After clarifying (14,000 rpm for 15 minutes), samples were treated with the indicated concentrations of Pin1-3-DTB at 4° C. for 1 hour. Lysates were then incubated with streptavidin agarose resin (Thermo Scientific, cat. #20349) for 1.5 hour at 4° C. Beads were washed four times with 500 μl of washing buffer (50 mM HEPES (pH 7.5), 10 mM NaCl, 1 mM EDTA, 10% glycerol), then pelleted by centrifugation and dried. The beads were boiled for 5 minutes at 95° C. in 2×LDS+10% β-mercaptoethanol. Proteins of interest were then assessed via Western blotting using the bolt system (Life Technologies).
The indicated cells were plated in 10 cm plates with 2.5 million cells per plate in 6 ml of medium. The day after plating, cells were treated with the indicated concentrations of candidate inhibitor for the indicated time points. The cells were then washed two times with cold phosphate buffer saline (1 ml per 10 cm plate) and collected by scraping with a cell scraper. Cells were lysed in 50 mM HEPES (pH 7.4), 1 mM EDTA, 10% glycerol, 1 mM TCEP, 150 mM NaCl, 1 mM EDTA, 0.5% NP-40, and protease inhibitor tablet (Roche)-using 210 μl of cell lysis buffer per 10 cm plate of cells. After clarifying (14,000 rpm for 15 minutes), 9 μl of each lysate sample was combined with […] of 4×LDS+10% β-mercaptoethanol (in a ratio of 3:1), boiled for 5 minutes, and set aside for the input loading control. Then, 200 μl of each lysate sample was incubated with 1 μM of Pin1-3-DTB for 1 hour at 4° C. and processed as described hereinabove for the lysate pull-down assays.
In order to assess cell permeability of Pin1-3 as well as its ability to engage cellular Pin1, PATU-8988T cells were treated with Pin1-3 (0.25 to 1 μM) for 5 hours. After cell lysis, the lysates were incubated with Pin1-3-DTB (1 μM, 1 hour at 4° C.) and probe-labeled targets were pulled down with streptavidin beads.

MDA-MB-231 cells = test: Cell viability assay (CellTiter-Glo); format: cell-based; settings: Homo sapiens; cell viability assay with MDA-MB-231 cells
Description: MDA-MB-231 cells grew in DMEM medium supplemented with 10% FCS (fetal calf serum), 1% PS (penicillin-streptomycin) and 1% L-glutamine (all from Biological Industries). Exclusion of mycoplasma contamination was monitored and conducted by test with MycoAlert™ kit (Lonza). Cells were trypsinized and counted, and 1000 cells/well were plated in 50 μl of growth medium into 384-well white TC plates (Greiner) using Multidrop™ 384 (Thermo Scientific) Washer Dispenser II. The number of viable cells was monitored using CellTiter-Glo® Luminescent kit (Promega) in accordance with the manufacturer's protocol. Luminescence was measured using luminescence module of PHERAstar™ FS plate reader (BMG Labtech). Data analysis was performed using GeneData 12 analytic software. Assay ready plate preparation: Compounds transferred into black microplates (Greiner 784900) using Labcyte Echo® acoustic dispensing technology. Assay ready plates were then sealed with heat seals. If not used immediately, plates were frozen at −20° C. and held in polypropylene boxes with silica-gel desiccant.
Exemplary Pin1-binding compounds were also tested for non-selective cytotoxicity in a viability assay against IMR90 lung fibroblasts.

[2] = test system: Pin1-knockout pancreatic cancer cells; test: Organoid growth in Matrigel, Pin1-knockout PATU-8988T; format: cell-based; settings: 1 μM, 9 days
Description: As three dimensional (3D) organoid models can reflect in vivo results better than monolayer cell culture [Baker et al., Trends Cancer Res 2016, 2:176-190], the anti-proliferative activity of Pin1-3 in PATU-8988T was further evaluated in wild-type or Pin1-knockout cells grown as organoids in Matrigel™ droplets. Cells were treated for 9 days with Pin1-3 (or Pin1-3-AcA or vehicle as a control), replenishing the compound in media every 3 days.

[3] = test system: 300 suspension and hematopoietic human cancer cell lines; test: PRISM anti-proliferative profiling; format: cell-based; settings: 120 h, all 300 cancer cell lines, 5-day treatment
Source text: In order to profile the anti-proliferative activity of Pin1-3, the compound was submitted to the PRISM platform (Broad Institute) to evaluate its potency against 300 suspension and hematopoietic human cancer cell lines. The PRISM method enables high-throughput, pooled screening of mixtures of cell lines, which are each labeled with a 24-nucleotide barcode [Yu et al., Nat Biotechnol 2016, 34:419-423].

CC(C)(C)CN(C(=O)CCl)C1CCS(=O)(=O)C1 (stereo not drawn) [Pin1-3, 2-chloro-N-(sulfolan-3-yl)-N-neopentylacetamide]
PDX tumor growth [1]: inhibited PDX tumor growth in mice in a dose-dependent manner | Germinal centers size (FAS^Hi CD38^− GC cells, flow cytometry) (germinal centers): significantly larger germinal centers | Engagement of Pin1 after 2 hours (Pin1 in PATU-8988T cells; 1 μM): about 50% | Time to complete engagement of Pin1 (Pin1 in PATU-8988T cells; 1 μM): ≤ 4 h | Competition with Pin1-3-DTB for Pin1 binding (pull-down) (Pin1 in PATU-8988T cells; 0.25 to 1 μM for 5 hours (Pin1-3-AcA 1 μM)): dose-dependent inhibition of Pin1-3-DTB pull-down | Concentration of maximal competition (Pin1 in PATU-8988T cells; 5 hours): 1 µM | EC50 (MDA-MB-231 cells): > 25 µM | Organoid growth [2]: no effect | IC50 [3]: > 3 µM
